This note sets out measurements from patent US20230295145A1, “PYRROLIDINE DERIVATIVES AND METHODS OF USE” (Genentech, Inc., priority 2020, published 2023).

Like-named read-outs stand apart in the source and are kept apart here.

The subject of data set [1] is CAL-120. Description: Cell Viability Assay (CellTiter-Glo). Conditions: 5 days.
Description: (§1) Cell lines were cultured in RPMI-1640, 5% fetal bovine serum, and 2 mM glutamine in a humidified incubator maintained at 37° C. with 5% CO2. Cells were assessed with a Vi-CELL Cell Viability Analyzer (Beckman Coulter; Brea, CA); viability of at least 90% was required for screening. A Multidropä Combi Reagent Dispenser (Thermo Scientific; Waltham, MA) was used to plate cells into Falcons^â 384-well, black, clear-bottom plates (Catalog No. 353962; Corning; Tewksbury, MA) using seeding densities previous determined to achieve approximately 80% confluence at the final time point of the assay. The compounds were prepared at 1000× in advance using an Echo 555 liquid handler (Labcyte; Sunnyvale, CA) and stored in −80° C. until the day of compound addition. On the following day, cells were treated with compounds at final assay concentration 1 uM and 10 uM using a Bravo Automated Liquid-Handling Platform (Agilent; Santa Clara, CA). After 5 days, 25 mL CellTiter-Glo^â reagent was added using a MultiFloä Microplate Dispenser (BioTek; Winooski, VT). Cell lysis was induced by mixing for 30 minutes on an orbital shaker; plates were then incubated at room temperature for 10 minutes to stabilize the luminescent signal. Luminescence was read by a 2104 EnVision^â Multilabel Plate Reader (PerkinElmer; Waltham, MA).
(§2) The data was processed using Genedata Screener^â, Version 15 (Genedata; Basel, Switzerland) to assess compound effects on viability. Compound treated wells were normalized to the median value of 14 DMSO control wells on the same 384 well plate.
For data set [2], the system named is PANC-1. As to the kind of experiment: Cell Viability Assay (CellTiter-Glo). Format: cell-based. The settings on record: 5 days. Background: In ATP-based viability assays light output follows the ATP content of the culture.
Description: as §1, §2
The test system of data set [3] is KPL-4. As to the kind of experiment: Cell Viability Assay (CellTiter-Glo). It is filed as cell-based. Conditions: 10 μM, 5 days.
Description: (§3) Cell lines were cultured in RPMI-1640, 5% fetal bovine serum, and 2 mM glutamine in a humidified incubator maintained at 37° C. with 5% CO2. Cells were assessed with a Vi-CELL Cell Viability Analyzer (Beckman Coulter; Brea, CA); viability of at least 90% was required for screening. A Multidropä Combi Reagent Dispenser (Thermo Scientific; Waltham, MA) was used to plate cells into Falcons^â 384-well, black, clear-bottom plates (Catalog No. 353962; Corning; Tewksbury, MA) using seeding densities previous determined to achieve approximately 80% confluence at the final time point of the assay. The compounds were prepared at 1000× in advance using an Echo 555 liquid handler (Labcyte; Sunnyvale, CA) and stored in −80° C. until the day of compound addition. On the following day, cells were treated with compounds at final assay concentration 1 uM and 10 uM using a Bravo Automated Liquid-Handling Platform (Agilent; Santa Clara, CA). After 5 days, 25 mL CellTiter-Glo^â reagent was added using a MultiFloä Microplate Dispenser (BioTek; Winooski, VT). Cell lysis was induced by mixing for 30 minutes on an orbital shaker; plates were then incubated at room temperature for 10 minutes to stabilize the luminescent signal. Luminescence was read by a 2104 EnVision^â Multilabel Plate Reader (PerkinElmer; Waltham, MA). […]
Data set [4] deals with NCI-H23. As to the kind of experiment: Cell Viability Assay (CellTiter-Glo). It is filed as cell-based. Conditions: 5 days.
Description: as §1, §2
Data set [5] concerns NCI-H2030. As to the kind of experiment: Cell Viability Assay (CellTiter-Glo). Format: cell-based. Conditions: 5 days.
Description: as §1, §2
Data set [6] relates to KPL-1. As to the kind of experiment: Cell Viability Assay (CellTiter-Glo). It is filed as cell-based. The settings on record: 5 days.
Description: as §1, §2
The test system of data set [7] is HCC1438. Description: Cell Viability Assay (CellTiter-Glo). Format: cell-based. The settings on record: 10 μM, 5 days.
Description: as §3
The subject of data set [8] is KNS-62. Description: Cell Viability Assay (CellTiter-Glo). The settings on record: 5 days. It is filed as cell-based.
Description: as §1, §2
Data set [9] deals with SW 620. As to the kind of experiment: Cell Viability Assay (CellTiter-Glo). It is filed as cell-based. Conditions: 10 μM, 5 days.
Description: as §3
Data set [10] concerns ABC-1. As to the kind of experiment: Cell Viability Assay (CellTiter-Glo). Format: cell-based. The settings on record: 10 μM, 5 days.
Description: as §1, §2
The subject of data set [11] is SUIT-2. As to the kind of experiment: Cell Viability Assay (CellTiter-Glo). Format: cell-based. Conditions: 10 μM, 5 days.
Description: as §3
Data set [12] addresses T1, VHL (Homo sapiens, UniProt P40337).
T1 construct: expressed in transfected cells
Description: VHL HEK-293 BRET Assay (VHL NanoBRET Target Engagement Assay). Format: cell-based. Conditions: HEK 293 RT VHL-NanoLuc stable cells. Here is the method:
The VHL NanoBRET™ Target Engagement Assay analyzes the apparent affinity of test compounds for VHL in cells by competitive displacement of a VHL NanoBRET™ tracer reversibly bound to a NanoLuc® VHL fusion protein stably expressed in the cells.
Test compounds were transferred to the assay plate (384 Well White Non-Binding Corning Assay Plates (Corning-3574)) using an Echo 555 Liquid Handler (Labcyte) in 2.5 nL increments and, as appropriate, intermediate stock concentrations of compounds, in order to prepare a titration series. 50 nL of control compound (10 mM; parental unlabeled VHL antagonist; see structure below) and 50 nL of DMSO (negative control) were dispensed into the appropriate control wells. DMSO was backfilled to a final volume of 50 nL as required. 50 nl per well of 1 mM VHL NanoBRET™ Tracer in DMSO (NanoBRET™ Tracer-PEG2-590 (see structure below)) was transferred into each well using an Echo 555 (ultimately yielding a final concentration of 1 uM). HEK 293 RT VHL-NanoLuc® stable cells were cultured in DMEM High Glucose with Pyruvate, 10% fetal bovine serum, 2 mg/mL of Geneticin Selective Antibiotic (50 mg/mL) and 2 mM HEPES (1 M). Cells were seeded in Opti-MEM (Life Technologies-11058-021), 1.7×10^5 cells/mL, 40 μl per well into the assay plate, centrifuged at 500 rpm for 30 seconds and incubated for 2 hours. Max Signal control wells consisted of DMSO only treated wells. Minimum Signal control wells contained of 10 uM parental unlabeled VHL antagonist (control compound—see structure below). 3× Complete Substrate plus Inhibitor Solution was prepared in Opti-MEM (consists of a 1:166 dilution of NanoBRET™ Nano-Glo® Substrate plus a 1:500 dilution of Extracellular NanoLuc® Inhibitor in Opti-MEM), and 20 ul was dispensed into each well of the 384-well plate and centrifuged at 1000 rpm for 1 minute, then incubated for 2 minutes at room temperature. Background Signal control wells were prepared without tracer for background correction steps.
Plates were read using a PerkinElmer Envision Reader (model 2104-0020) equipped with Luminescence option (Mirror: BRET2 Enh (PE Barcode 659), Emission Filter: Omega 610LP (Barcode 504), 2nd Emission Filter: Umbelliferone 460 (Barcode 207), Measurement height: 6.5 mm, Measurement time: 1 s). The raw BRET ratio values were calculated by dividing the acceptor emission value (610 nm) by the donor emission value (460 nm) for each sample. To correct for background, the BRET ratio in the absence of tracer (average of no-tracer control samples) was subtracted from the BRET ratio of each sample. Raw BRET units were converted to milliBRET units (mBU) by multiplying each raw BRET value by 1,000. The normalized NanoBRET™ signal was calculated relative to the Max Signal control wells (DMSO treated control wells) and the Minimum Signal control wells. Percentage inhibition was calculated relative to the Minimum Signal control and Maximum Signal control wells. IC50 values were derived by four parameter curve fitting using the Robust method.
In general terms: Bioluminescence resonance energy transfer reports proximity on the nanometre scale.

Data set [13] deals with MDA-MB-436. Description: Cell Viability Assay (CellTiter-Glo). The settings on record: 10 μM, 5 days. It is filed as cell-based.
Description: as §3
In data set [14] the target is T1, VHL. As to the kind of experiment: VHL HEK-293 BRET Assay (VHL NanoBRET Target Engagement Assay). Format: cell-based. Conditions: IC50 values measured in the presence of digitonin; HEK 293 RT VHL-NanoLuc stable cells; read-out: IC50 + Digi (μM)*.
The subject of data set [15] is NCI-H1650. Description: Cell Viability Assay (CellTiter-Glo). It is filed as cell-based. Conditions: 10 μM, 5 days.
Description: as §3
Data set [16] relates to HCC366. As to the kind of experiment: Cell Viability Assay (CellTiter-Glo). It is filed as cell-based. The settings on record: 5 days.
Description: as §1, §2
Data set [17] has as its system MCF-7. As to the kind of experiment: Cell Viability Assay (CellTiter-Glo). Format: cell-based. The settings on record: 10 μM, 5 days.
Description: as §3
Data set [18] concerns CAL-120. The settings on record: 10 µM.
Description: as §1, §2

T1 sequence (P40337 whole entry): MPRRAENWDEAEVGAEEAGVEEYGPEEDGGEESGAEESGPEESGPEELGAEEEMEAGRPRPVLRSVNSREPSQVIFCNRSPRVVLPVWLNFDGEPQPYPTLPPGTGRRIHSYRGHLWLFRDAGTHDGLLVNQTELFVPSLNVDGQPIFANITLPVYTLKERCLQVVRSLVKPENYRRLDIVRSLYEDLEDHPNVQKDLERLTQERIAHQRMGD

For orientation: IC50 means the midpoint of a concentration-inhibition curve. As to `Cc1ncsc1-c1ccc(CNC(=O)[C@@H]2C[C@@H](O)CN2C(=O)[C@@H](n2cc(C3CC3)nn2)C(C)(C)C)cc1` [Compound 288, (2S,4R)-1-[(2S)-2-(4-cyclopropyltriazol-1-yl)-3,3-dimethyl-butanoyl]-4-hydroxy-N-[[4-(4-methylthiazol-5-yl)phenyl]methyl]pyrrolidine-2-carboxamide], the “Normalized viability % DMSO” value is 31.1 % DMSO in [1] (1 μM); 31.9 % DMSO in data set [1] (10 μM); 33.9 % DMSO in [2] (1 μM); 31.1 % DMSO in data set [2] (10 μM); 2.2 % DMSO in data set [3]; 8.6 % DMSO in data set [4] (1 μM). The “Normalized viability % DMSO” value in data set [4] (10 μM) was 6.7 % DMSO; in data set [5] (1 μM) it was 19.2 % DMSO; in data set [5] (10 μM), 16.5 % DMSO; in [6] (1 μM), 40.5 % DMSO; in [6] (10 μM), 25.4 % DMSO; in data set [7], 2.1 % DMSO. Further, the “Normalized viability % DMSO” value in [8] (1 μM) came to 44.3 % DMSO; in data set [8] (10 μM), 26.4 % DMSO; in data set [9] it was 28.2 % DMSO; in data set [10], 7.1 % DMSO; in [11], 30.2 % DMSO; in [13] it was 15.8 % DMSO. Moreover, the “Normalized viability % DMSO” value in data set [15] was 27.7 % DMSO; in data set [16] (1 μM), 43.0 % DMSO; in data set [16] (10 μM) it was 22.5 % DMSO; in data set [17], 25.8 % DMSO. In addition, the IC50 in [12] (read-out: IC50) is 0.00794 µM; in data set [14], 0.0132 µM.

As for `CC(C)(NC(=O)[C@@H]1C[C@@H](O)CN1C(=O)[C@@H](n1cc(C2CC2)nn1)C(C)(C)C)C(=O)Nc1ccccc1` [Compound 480, (2S,4R)-N-(2-anilino-1,1-dimethyl-2-oxo-ethyl)-1-[(2S)-2-(4-cyclopropyltriazol-1-yl)-3,3-dimethyl-butanoyl]-4-hydroxy-pyrrolidine-2-carboxamide], the “Normalized viability % DMSO” value worked out at 15.5 % DMSO in data set [1] (10 μM); 38.1 % DMSO in data set [2] (1 μM); 22.7 % DMSO in data set [2] (10 μM); 38.4 % DMSO in [3]; 37.0 % DMSO in data set [4] (1 μM); 8.2 % DMSO in data set [4] (10 μM). Besides, the “Normalized viability % DMSO” value in data set [5] (1 μM) is reported as 32.4 % DMSO; in data set [5] (10 μM) it was 5.6 % DMSO; in data set [6] (10 μM), 47.9 % DMSO; in [7], 11.3 % DMSO; in data set [8] (10 μM), 8.7 % DMSO; in data set [10], 38.1 % DMSO. Moreover, the figures for the “Normalized viability % DMSO” value in data set [13], in data set [15] and in data set [17] were 23.6 % DMSO, 12.6 % DMSO and 13.7 % DMSO, respectively. Besides, the IC50 in data set [12] (read-out: IC50) was 0.135 µM; in data set [14], 6.66 µM.

For “(2S,4R)-N-[2-(4-bromoindol-1-yl)ethyl]-1-[(2S)-2-(4-cyclopropyltriazol-1-yl)-3,3-dimethyl-butanoyl]-4-hydroxy-pyrrolidine-2-carboxamide [Compound 469]”, the IC50 in data set [12] (read-out: IC50) stood at 0.21 µM; in data set [12] (IC50 values measured in the presence of digitonin, read-out: IC50 + Digi (μM)*) it was 0.435 µM. Also, the “Normalized viability % DMSO” value in [18] came out at 62.6 % DMSO.
